# Test results published in ChEMBL document CHEMBL1144499, “Complanadines C and D, new dimeric alkaloids from Lycopodium complanatum” (Bioorg Med Chem, 2007).
# The source made the active and inactive calls. The rule behind the calls is not given here.
# Tests used:
# 1321-N1 = experiment: Enhancement of NGF mRNA expression in human 1321N1 cells; assay type: functional, cell-based
# Cryptococcus neoformans = experiment: Antimicrobial activity against Cryptococcus neoformans; assay type: functional
# L1210 = experiment: Cytotoxicity against mouse L1210 cells; assay type: cell-based
# Aspergillus niger = experiment: Antimicrobial activity against Aspergillus niger; assay type: functional
smiles,measurement,setting,value
C[C@@H]1C[C@H]2CC3=C(CC[C@H](c4cnc5c(c4)[C@@]46C[C@H](C)C[C@@H](C5)[C@H]4CCCN6)N3)[C@]3(C1)NCCC[C@H]23 [COMPLANADINE D],Activity,1321-N1,Active
same,MIC,Cryptococcus neoformans,0.26 µg/mL
same,IC50,L1210,7 µg/mL
same,MIC,Aspergillus niger,4.16 µg/mL
